Reference: PubChem BioAssay (NCI)
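Assay format: 96-well plates, 48-hour exposure. Abbreviation: GI50, concentration required for 50% inhibition of growth. The concentration for full growth arrest is given as TGI.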

Experiments:
Experiment in all cases: DTP human tumour cell line panel, 48 h
[1] = system: SK-MEL-28 melanoma
[2] = system: RPMI-8226 leukemia
[3] = system: SNB-19 CNS
[4] = system: K-562 leukemia
[5] = system: SK-MEL-5 melanoma
[6] = system: ACHN renal
[7] = system: SN12C renal
[8] = system: HOP-62 NSCLC
[9] = system: UACC-62 melanoma
[10] = system: CAKI-1 renal
[11] = system: OVCAR-8 ovarian
[12] = system: 786-0 renal
[13] = system: CCRF-CEM leukemia
[14] = system: MDA-MB-435
[15] = system: SK-OV-3 ovarian
[16] = system: NCI/ADR-RES ovarian
[17] = system: A498 renal
[18] = system: OVCAR-4 ovarian
[19] = system: PC-3 prostate
[20] = system: KM12 colon
[21] = system: UO-31 renal
[22] = system: DU-145 prostate
[23] = system: NCI-H226 lung
[24] = system: SF-539 CNS
[25] = system: LOX IMVI melanoma
[26] = system: SW-620 colon
[27] = system: COLO 205 colon
[28] = system: HT29 colon
[29] = system: MDA-MB-231 breast
[30] = system: IGROV1 ovarian
[31] = system: NCI-H522 lung
[32] = system: HS 578T breast
[33] = system: MOLT-4 leukemia
[34] = system: T-47D breast
[35] = system: MCF7 breast
[36] = system: SK-MEL-2 melanoma
[37] = system: A549 NSCLC
[38] = system: HCT-15 colon
[39] = system: HOP-92 NSCLC
[40] = system: EKVX NSCLC
[41] = system: SR leukemia
[42] = system: RXF 393 renal
[43] = system: NCI-H23 lung
[44] = system: HCC-2998 colon
[45] = system: HCT-116 colon
[46] = system: SNB-75 CNS
[47] = system: MALME-3M melanoma
[48] = system: HL-60(TB) leukemia
[49] = system: OVCAR-5 ovarian
[50] = system: TK-10 renal
[51] = system: BT-549 breast
[52] = system: OVCAR-3 ovarian
[53] = system: SF-268 CNS
[54] = system: M14 melanoma
[55] = system: NCI-H460 lung
[56] = system: U251 CNS
[57] = system: SF-295 CNS
[58] = system: UACC-257 melanoma

S=c1ssnc1-c1ccccn1
GI50 [1]: 2.87 µM
TGI [1]: 13 µM
GI50 [2]: 2.58 µM
TGI [2]: 29.3 µM
GI50 [3]: 11.2 µM
TGI [3]: > 94.8 µM
GI50 [4]: 1.4 µM
TGI [4]: 16.2 µM
GI50 [5]: 8.81 µM
TGI [5]: > 37.6 µM
GI50 [6]: 2.25 µM
TGI [6]: 14.7 µM
GI50 [7]: 5.91 µM
TGI [7]: 32 µM
GI50 [8]: 3.83 µM
TGI [8]: 27.9 µM
GI50 [9]: 5.31 µM
TGI [9]: 21.1 µM
GI50 [10]: 3.07 µM
TGI [10]: 16.3 µM
GI50 [11]: 3.17 µM
TGI [11]: 23 µM
GI50 [12]: 2.54 µM
TGI [12]: > 25.4 µM
GI50 [13]: 1.27 µM
TGI [13]: 4.24 µM
GI50 [14]: 3.28 µM
TGI [14]: 16.3 µM
GI50 [15]: 12.8 µM
TGI [15]: > 86.9 µM
GI50 [16]: 3.84 µM
TGI [16]: 39.7 µM
GI50 [17]: 6.8 µM
TGI [17]: 31.8 µM
GI50 [18]: 9.36 µM
TGI [18]: > 100 µM
GI50 [19]: 3 µM
TGI [19]: > 34.6 µM
GI50 [20]: 3.72 µM
TGI [20]: 15.4 µM
GI50 [21]: 3.51 µM
TGI [21]: 22.2 µM
GI50 [22]: 1.34 µM
TGI [22]: 13.8 µM
GI50 [23]: 7.08 µM
TGI [23]: 25.1 µM
GI50 [24]: 2.52 µM
TGI [24]: 15.1 µM
GI50 [25]: 2.54 µM
TGI [25]: 12.1 µM
GI50 [26]: 2.72 µM
TGI [26]: 14.5 µM
GI50 [27]: 3.96 µM
TGI [27]: 17.8 µM
GI50 [28]: 5.28 µM
TGI [28]: > 40.7 µM
GI50 [29]: 3.44 µM
TGI [29]: 22 µM
GI50 [30]: 1.81 µM
TGI [30]: 11 µM
GI50 [31]: 1.84 µM
TGI [31]: 4.12 µM
GI50 [32]: 2.15 µM
TGI [32]: 7.86 µM
GI50 [33]: 1.27 µM
TGI [33]: 4.58 µM
GI50 [34]: 5.59 µM
TGI [34]: > 55.5 µM
GI50 [35]: 2.84 µM
TGI [35]: > 35.9 µM
GI50 [36]: 1.88 µM
TGI [36]: 5.73 µM
GI50 [37]: 8.92 µM
TGI [37]: 37.9 µM
GI50 [38]: 2.2 µM
TGI [38]: 15.7 µM
GI50 [39]: 1.67 µM
TGI [39]: 6.73 µM
GI50 [40]: 5.64 µM
TGI [40]: 22 µM
GI50 [41]: 0.521 µM
TGI [41]: > 21.5 µM
GI50 [42]: 3.05 µM
TGI [42]: 6.47 µM
GI50 [43]: 3.77 µM
TGI [43]: 18.4 µM
GI50 [44]: 3.4 µM
TGI [44]: 12.7 µM
GI50 [45]: 1.24 µM
TGI [45]: > 20.1 µM
GI50 [46]: 3.13 µM
TGI [46]: > 38.6 µM
GI50 [47]: 7.77 µM
TGI [47]: 36.1 µM
GI50 [48]: 1.37 µM
TGI [48]: 4.65 µM
GI50 [49]: 5.38 µM
TGI [49]: 25.1 µM
GI50 [50]: 5.04 µM
TGI [50]: 32.4 µM
GI50 [51]: 6.38 µM
TGI [51]: 28.7 µM
GI50 [52]: 3.21 µM
TGI [52]: 17.8 µM
GI50 [53]: 2.71 µM
TGI [53]: 20.1 µM
GI50 [54]: 2.58 µM
TGI [54]: 19.6 µM
GI50 [55]: 1.82 µM
TGI [55]: 11.6 µM
GI50 [56]: 4.63 µM
TGI [56]: 33.2 µM
GI50 [57]: 5.17 µM
TGI [57]: 24.9 µM
GI50 [58]: 3.1 µM
TGI [58]: 8.47 µM
